The values below are quoted from earlier work in paper PMC5680437 (Journal of Clinical & Translational Endocrinology, 2015).

The conditions of series [1]: subcutaneous; ref Morrow et al. [18].
The test system of a further series is healthy volunteers. Particulars: ref Arnolds et al. [19].
For series [2] the following is noted: 0.2 U/kg dose; ref Heise et al. [20].

As for insulin aspart, the “Time to 50% of maximal concentration within the first hour” value in series [1] is 32 min. Besides, the “AUC for glucose infusion rate (to maintain euglycemia)” value with healthy volunteers is 16 mg/kg.

As for insulin glulisine, the “Time to 50% of maximal concentration within the first hour” value in series [1] was 21 min. Moreover, the “AUC for the glucose infusion rate in the first hour” value in series [2] is reported as 102.3 mg/kg. Moreover, the “AUC for glucose infusion rate (to maintain euglycemia)” value in the series with healthy volunteers is recorded as 30 mg/kg.

Take insulin lispro: the “Time to 50% of maximal concentration within the first hour” value in series [1] is 31 min. Besides, the “AUC for the glucose infusion rate in the first hour” value in series [2] is given as 83.1 mg/kg.
